Measured values taken from patent US8916565B2, “Pyrrolopyrazine-spirocyclic piperidine amides as modulators of ion channels” (priority 2011, dated 2014).

molecular target: human NaV subtype, like NaV 1.7 (Homo sapiens, UniProt Q15858); experiment: E-VIPR optical membrane potential assay with electrical stimulation; format: cell-based; details: active against one or more sodium channels; Table 3 does not name the assay or NaV subtype; read-out: Binned Activity Data (IC50)
From the text: Assays for Detecting and Measuring NaV Inhibition Properties of Compound E-VIPR Optical Membrane Potential Assay Method with Electrical Stimulation
Sodium channels are voltage-dependent proteins that can be activated by inducing membrane voltage changes by applying electric fields. The electrical stimulation instrument and methods of use are described in Ion Channel Assay Methods PCT/US01/21652, herein incorporated by reference and are referred to as E-VIPR. The instrument comprises a microtiter plate handler, an optical system for exciting the coumarin dye while simultaneously recording the coumarin and oxonol emissions, a waveform generator, a current- or voltage-controlled amplifier, and a device for inserting electrodes in well. Under integrated computer control, this instrument passes user-programmed electrical stimulus protocols to cells within the wells of the microtiter plate.
24 hours before the assay on E-VIPR, HEK cells expressing human NaV subtype, like NaV 1.7, are seeded in 384-well poly-lysine coated plates at 15,000-20,000 cells per well. Other subtypes are performed in an analogous mode in a cell line expressing the NaV of interest. HEK cells are grown in media (exact composition is specific to each cell type and NaV subtype) supplemented with 10% FBS (Fetal Bovine Serum, qualified; GibcoBRL #16140-071) and 1% Pen-Strep (Penicillin-Streptomycin; GibcoBRL #15140-122). Cells are grown in vented cap flasks, in 90% humidity and 10% CO2, to 100% confluence. They are usually split by trypsinization 1:10 or 1:20, depending on scheduling needs, and grown for 2-3 days before the next split.
Bath 1 buffer. Glucose 10 mM (1.8 g/L), Magnesium Chloride (Anhydrous), 1 mM (0.095 g/L), Calcium Chloride, 2 mM (0.222 g/L), HEPES 10 mM (2.38 g/L), Potassium Chloride, 4.5 mM (0.335 g/L), Sodium Chloride 160 mM (9.35 g/L).
Hexyl Dye Solution: Bath 1 Buffer+0.5% β-cyclodextrin (make this prior to use, Sigma #C4767), 8 μM CC2-DMPE+2.5 μM DiSBAC6(3). To make the solution Add volume of 10% Pluronic F127 stock equal to volumes of CC2-DMPE+DiSBAC6(3). The order of preparation is first mix Pluronic and CC2-DMPE, then add DiSBAC6(3) while vortexing, then add Bath 1+β-Cyclodextrin.
1) Pre-spot compounds (in neat DMSO) into compound plates. Vehicle control (neat DMSO), the positive control (20 mM DMSO stock tetracaine, 125 μM final in assay) and test compounds are added to each well at 160× desired final concentration in neat DMSO. Final compound plate volume will be 80 μL (80-fold intermediate dilution from 1 μL DMSO spot; 160-fold final dilution after transfer to cell plate). Final DMSO concentration for all wells in assay is 0.625%.
2) Prepare Hexyl Dye Solution.
3) Prepare cell plates. On the day of the assay, medium is aspirated and cells are washed three times with 100 μL of Bath 1 Solution, maintaining 25 μL residual volume in each well.
4) Dispense 25 μL per well of Hexyl Dye Solution into cell plates. Incubate for 20-35 minutes at room temp or ambient conditions.
5) Dispense 80 μL per well of Bath 1 into compound plates. Acid Yellow-17 (1 mM) is added and Potassium Chloride can be altered from 4.5 to 20 mM depending on the NaV subtype and assay sensitivity.
6) Wash cell plates three times with 100 μL per well of Bath1, leaving 25 μL of residual volume. Then transfer 25 uL per well from Compound Plates to Cell Plates. Incubate for 20-35 minutes at room temp/ambient condition
7) Read Plate on E-VIPR. Use the current-controlled amplifier to deliver stimulation wave pulses for typically 9 seconds and a scan rate of 400 Hz. A pre-stimulus recording is performed for 0.5 seconds to obtain the un-stimulated intensities baseline. The stimulatory waveform is applied for 9 seconds followed by 0.5 seconds of post-stimulation recording to examine the relaxation to the resting state.

human NaV subtype, like NaV 1.7, sequence (Q15858 whole entry): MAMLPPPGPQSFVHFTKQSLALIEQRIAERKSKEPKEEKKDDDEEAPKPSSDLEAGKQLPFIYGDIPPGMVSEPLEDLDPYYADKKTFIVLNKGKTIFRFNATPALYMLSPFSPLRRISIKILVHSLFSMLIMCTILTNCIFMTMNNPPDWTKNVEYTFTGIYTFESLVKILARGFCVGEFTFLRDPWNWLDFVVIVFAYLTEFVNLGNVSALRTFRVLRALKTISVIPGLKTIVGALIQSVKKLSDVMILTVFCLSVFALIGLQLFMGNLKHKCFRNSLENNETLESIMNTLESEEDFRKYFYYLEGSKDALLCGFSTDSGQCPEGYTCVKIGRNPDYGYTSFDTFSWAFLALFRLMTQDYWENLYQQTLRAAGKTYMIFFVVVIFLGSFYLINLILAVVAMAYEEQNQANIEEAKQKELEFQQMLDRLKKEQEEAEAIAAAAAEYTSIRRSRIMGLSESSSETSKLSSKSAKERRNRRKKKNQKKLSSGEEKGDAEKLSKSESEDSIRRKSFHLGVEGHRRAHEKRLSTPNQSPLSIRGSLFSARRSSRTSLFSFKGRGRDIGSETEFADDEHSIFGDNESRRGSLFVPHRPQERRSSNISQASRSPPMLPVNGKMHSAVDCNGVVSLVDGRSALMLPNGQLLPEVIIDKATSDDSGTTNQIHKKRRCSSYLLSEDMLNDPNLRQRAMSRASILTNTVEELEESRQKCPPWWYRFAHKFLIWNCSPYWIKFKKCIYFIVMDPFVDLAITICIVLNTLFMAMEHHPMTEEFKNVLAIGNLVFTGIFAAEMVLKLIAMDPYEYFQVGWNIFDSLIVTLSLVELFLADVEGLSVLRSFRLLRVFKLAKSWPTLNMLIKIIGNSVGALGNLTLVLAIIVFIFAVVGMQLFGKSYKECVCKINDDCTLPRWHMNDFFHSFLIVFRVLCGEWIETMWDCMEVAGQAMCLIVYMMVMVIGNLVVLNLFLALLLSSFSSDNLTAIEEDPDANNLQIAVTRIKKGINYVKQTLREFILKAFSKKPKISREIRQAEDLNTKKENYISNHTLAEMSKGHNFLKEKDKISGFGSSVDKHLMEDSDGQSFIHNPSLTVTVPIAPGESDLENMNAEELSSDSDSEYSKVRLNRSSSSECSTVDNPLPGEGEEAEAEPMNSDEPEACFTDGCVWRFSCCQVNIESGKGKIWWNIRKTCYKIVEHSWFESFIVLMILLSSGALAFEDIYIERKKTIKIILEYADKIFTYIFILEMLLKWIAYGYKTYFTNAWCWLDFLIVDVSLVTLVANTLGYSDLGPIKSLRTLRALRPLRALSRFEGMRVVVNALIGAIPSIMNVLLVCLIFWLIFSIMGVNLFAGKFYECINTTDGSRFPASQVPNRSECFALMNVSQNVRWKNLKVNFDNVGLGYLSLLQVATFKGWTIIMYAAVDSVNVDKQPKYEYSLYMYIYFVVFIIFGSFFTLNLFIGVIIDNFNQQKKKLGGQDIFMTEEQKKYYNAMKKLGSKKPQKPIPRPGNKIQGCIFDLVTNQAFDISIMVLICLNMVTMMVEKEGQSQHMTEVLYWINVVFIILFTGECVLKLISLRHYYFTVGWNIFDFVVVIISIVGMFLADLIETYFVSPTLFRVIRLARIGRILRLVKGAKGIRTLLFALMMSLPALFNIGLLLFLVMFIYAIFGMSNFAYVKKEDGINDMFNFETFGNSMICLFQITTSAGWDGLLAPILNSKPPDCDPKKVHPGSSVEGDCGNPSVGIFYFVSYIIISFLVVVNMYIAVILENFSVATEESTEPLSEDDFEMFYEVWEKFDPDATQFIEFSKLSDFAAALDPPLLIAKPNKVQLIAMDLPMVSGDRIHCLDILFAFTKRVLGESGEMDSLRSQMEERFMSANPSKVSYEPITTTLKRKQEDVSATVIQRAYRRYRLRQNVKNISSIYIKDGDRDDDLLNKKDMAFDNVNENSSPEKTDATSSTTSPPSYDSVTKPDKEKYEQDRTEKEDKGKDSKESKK

| SMILES | IC50 |
| --- | --- |
| CCOc1ccc(C(=O)N2CCC3(CC2)c2ccc(C(C)=O)n2CCN3C)cc1OCC [Compound 416] | > 5000 nM |
| COc1cc(C(=O)N2CCC3(CC2)c2ccc(CC(F)(F)F)n2CCN3C)ccc1OC(C)C [Compound 547] | > 5000 nM |
| COc1cc(C(=O)N2CCC3(CC2)c2ccc(Cl)n2CCN3C)ccc1OC(C)C [Compound 234] | > 5000 nM |
| Cc1cc(C(=O)N2CCC3(CC2)c2cccn2CCN3C)ccc1C(C)(C)O [Compound 457] | > 5000 nM |
| COc1cc(C(=O)N2CCC3(CC2)c2ccc(C(F)(F)F)n2CCN3C(=O)N(C)C)ccc1OC(C)C [Compound 227] | > 5000 nM |
| COc1ccc(C(=O)N2CCC3(CC2)c2cc(C(=O)C(F)(F)F)cn2C(C)(C)CN3C)cc1Cl [Compound 529] | > 5000 nM |
| Cc1cc(C(=O)N2CCC3(CC2)c2ccc(C(=O)C(F)(F)F)n2CCN3C)ccc1F [Compound 376] | 2000 to 5000 nM |
| CN1CCn2c(Cl)ccc2C12CCN(C(=O)c1cccc3cccnc13)CC2 [Compound 679] | 2000 to 5000 nM |
| COc1ccc(C(=O)N2CCC3(CC2)c2ccc(C(=O)c4ccccc4)n2CCN3C)cc1C [Compound 694] | 2000 to 5000 nM |
| Cc1cc(C(=O)N2CCC3(CC2)c2ccc(C(=O)C(F)(F)F)n2CCN3C)ccc1-c1c[nH]nc1C(F)(F)F [Compound 303] | > 5000 nM |
| CN1CCn2c(C(=O)C3(C)CC3)ccc2C12CCN(C(=O)c1ccc(S(=O)(=O)C(C)(C)C)cc1)CC2 [Compound 689] | > 5000 nM |
| COc1cc(C(=O)N2CCC3(CC2)c2ccc(C(F)(F)F)n2CCN3C)ccc1O [Compound 407] | 2000 to 5000 nM |
| Cc1cc(C(=O)N2CCC3(CC2)c2ccc(C(=O)C(C)(C)C)n2CCN3C)ccc1S(C)(=O)=O [Compound 682] | > 5000 nM |
| CC(C)Oc1ccc(C(=O)N2CCC3(CC2)c2ccc(Cl)n2CCN3C)cc1 [Compound 696] | > 5000 nM |
| CN1CCn2c(C(=O)C(F)(F)F)ccc2C12CCN(C(=O)c1ccc(-c3ccccc3)cn1)CC2 [Compound 453] | 2000 to 5000 nM |
| CC(=O)c1cc2n(c1)CC(C)(C)NC21CCN(C(=O)c2ccc(OC(C)C)c(Cl)c2)CC1 [Compound 30] | > 5000 nM |
| Cc1nc(C(=O)N2CCC3(CC2)c2cc(C(=O)C(F)(F)F)cn2C(C)(C)CN3C)ccc1OC(C)C [Compound 178] | > 5000 nM |

| SMILES | IC50 |
| --- | --- |
| CN1CCn2c(C(F)(F)F)ccc2C12CCN(C(=O)c1ccc(OCC(C)(C)O)cc1)CC2 [Compound 637] | 2000 to 5000 nM |
| COc1cc(C(=O)N2CCC3(CC2)c2c(F)cc(C(F)(F)F)n2CCN3C)ccc1OC(C)C [Compound 118] | ≤ 2000 nM |
| CCOc1ccc(C(=O)N2CCC3(CC2)c2ccc(Cl)n2CCN3C)cc1OCC [Compound 86] | > 5000 nM |
| CN1CCn2c(C(=O)C(F)(F)F)ccc2C12CCN(C(=O)c1ccc(C(C)(C)O)c(F)c1)CC2 [Compound 575] | ≤ 2000 nM |
| COc1cc(C(=O)N2CCC3(CC2)c2ccc(C(=O)C(F)(F)F)n2CCN3C)ccc1C(C)(C)C [Compound 423] | ≤ 2000 nM |
| Cc1cccc(C(=O)N2CCC3(CC2)c2ccc(C(F)(F)F)n2CCN3C)c1 [Compound 109] | > 5000 nM |
| Cc1cc(C(=O)N2CCC3(CC2)c2ccc(Cl)n2CCN3C)ccc1-c1ccccc1 [Compound 424] | ≤ 2000 nM |
| COc1cc(C(=O)N2CCC3(CC2)c2ccc(C(F)(F)F)n2C(CO)CN3C)ccc1OC(C)C (stereo not shown) [Compound 719] | 2000 to 5000 nM |
| C[C@H]1Cn2c(C(=O)C(F)(F)F)ccc2C2(CCN(C(=O)c3ccc(C(C)(C)O)c(F)c3)CC2)N1C [Compound 411] | ≤ 2000 nM |
| COc1ccc(C(=O)N2CCC3(CC2)NCC(C)n2c(C(=O)C(F)(F)F)ccc23)cc1C (stereo not shown) [Compound 595] | ≤ 2000 nM |
| COc1cc(C(=O)N2CCC3(CC2)c2ccc(C(C)=O)n2CCN3C)ccc1COCC(F)(F)F [Compound 470] | ≤ 2000 nM |
| COc1cc(C(=O)N2CCC3(CC2)N[C@H]2CCCC[C@H]2n2cccc23)ccc1OCCC(C)C [Compound 247] | ≤ 2000 nM |
| Cc1cc(C)n2ncc(C(=O)N3CCC4(CC3)c3ccc(C(F)(F)F)n3CCN4C)c2n1 [Compound 673] | ≤ 2000 nM |
| CCCOc1ccc(C(=O)N2CCC3(CC2)c2ccc(Cl)n2CCN3C)cc1 [Compound 590] | 2000 to 5000 nM |
| Cc1nc(C(=O)N2CCC3(CC2)c2c(Cl)cc(C(F)(F)F)n2CCN3C)ccc1OC(C)C [Compound 261] | ≤ 2000 nM |
| COC(=O)N1CCn2c(C(F)(F)F)ccc2C12CCN(C(=O)c1ccc(OC(C)C)c(OC)c1)CC2 [Compound 259] | ≤ 2000 nM |

More lines, now with the values ahead:

| IC50 | SMILES |
| --- | --- |
| ≤ 2000 nM | COc1ccc(C(=O)N2CCC3(CC2)c2ccc(C(=O)C(F)(F)F)n2CCN3C)cc1C(F)(F)F [Compound 459] |
| ≤ 2000 nM | Cc1cc(C(=O)N2CCC3(CC2)c2ccc(C(=O)C(F)(F)F)n2CCN3C)ccc1C1(O)CCCC1 [Compound 487] |
| ≤ 2000 nM | CC(C)Oc1ccc(C(=O)N2CCC3(CC2)N[C@H](C)Cn2c(C(F)(F)F)ccc23)cc1F [Compound 57] |
| ≤ 2000 nM | Cc1cc(C(=O)N2CCC3(CC2)c2ccc(C(=O)C(F)(F)F)n2CCN3C)ccc1OCC(C)(C)O [Compound 570] |
| ≤ 2000 nM | CC(=O)c1ccc2n1CCN(C)C21CCN(C(=O)c2ccc(OCC(F)(F)F)cc2)CC1 [Compound 520] |
| ≤ 2000 nM | CC(C)Oc1ccc(C(=O)N2CCC3(CC2)c2ccc(Cl)n2CCN3C)cc1C(F)(F)F [Compound 599] |
| ≤ 2000 nM | Cc1cc(C(=O)N2CCC3(CC2)c2ccc(C(F)(F)F)n2CCN3C)ccc1S(=O)(=O)N(C)C [Compound 347] |
| ≤ 2000 nM | Cc1cc(C(=O)N2CCC3(CC2)c2ccc(C(=O)C(F)(F)F)n2CCN3C)ccc1-c1ccc(C#N)nc1 [Compound 216] |
| ≤ 2000 nM | COc1cc(C(=O)N2CCC3(CC2)NC(C)(C)Cn2c(C(F)(F)F)ccc23)ccc1OC(C)(C)C [Compound 667] |
| ≤ 2000 nM | CN1CCn2c(C(=O)C(F)(F)F)ccc2C12CCN(C(=O)c1ccc(-c3ccccc3)cc1)CC2 [Compound 172] |
| ≤ 2000 nM | COc1ccc(C(=O)N2CCC3(CC2)NC(C)(C)Cn2c(C(=O)C(F)(F)F)ccc23)c(F)c1 [Compound 312] |
| ≤ 2000 nM | CC(=O)c1ccc2n1CCN(C)C21CCN(C(=O)c2ccc(OC(C)C)c(C)n2)CC1 [Compound 691] |
| ≤ 2000 nM | COc1cc(C(=O)N2CCC3(CC2)NC(C)(C)Cn2c(C(=O)C(F)(F)F)ccc23)ccc1COCCC(F)(F)F [Compound 480] |
| ≤ 2000 nM | CC(C)Oc1ccc(C(=O)N2CCC3(CC2)NCC(C)(C)n2c(C(F)(F)F)ccc23)cc1F [Compound 337] |
| ≤ 2000 nM | CN1CCn2c(C(=O)C(C)(C)C)ccc2C12CCN(C(=O)c1ccc(O)c(Cl)c1)CC2 [Compound 641] |
| ≤ 2000 nM | COc1cc(C(=O)N2CCC3(CC2)c2ccc(C(F)(F)F)n2CCN3C)ccc1OC(C)C [Compound 443] |
| ≤ 2000 nM | Cc1cc(C(=O)N2CCC3(CC2)NCC(C)(C)n2c(C(F)(F)F)ccc23)ccc1OC(C)C [Compound 280] |
| ≤ 2000 nM | CC(C)Oc1ccc(C(=O)N2CCC3(CC2)NCCn2c(C(F)(F)F)ccc23)cc1F [Compound 477] |
| ≤ 2000 nM | CC1(C)Cn2c(C(=O)C(F)(F)F)ccc2C2(CCN(C(=O)c3ccc(COCCC(F)(F)F)cc3)CC2)N1 [Compound 103] |
| ≤ 2000 nM | C[C@H]1Cn2c(C(=O)C(F)(F)F)ccc2C2(CCN(C(=O)c3ccc(C(C)(C)O)cc3)CC2)N1C [Compound 349] |
| ≤ 2000 nM | COCCN1CCn2c(C(F)(F)F)ccc2C12CCN(C(=O)c1ccccc1OC(F)(F)F)CC2 [Compound 662] |
| ≤ 2000 nM | Cc1cc(C(=O)N2CCC3(CC2)c2c(F)cc(C(F)(F)F)n2CCN3C)ccc1S(=O)(=O)C(C)C [Compound 215] |
